Values quoted from earlier work as cited in US10842739B2, “Biodegradable alpha-2 agonist polymeric implants and therapeutic uses thereof” (Allergan, Inc., priority 2008, dated 2020).
Where two headings read alike, the source gives them in different places.

SMILES: Brc1c(NC2=NCCN2)ccc2nccnc12 [brimonidine freebase, 5-bromo-6-(2-imidazolidinylideneamino)quinoxaline]
- water solubility (in words): negligible
- water solubility (in words) (listed as Brimonidine free base): poorly water soluble
- water solubility (in words) (listed as brimonidine free base): not water soluble
